Assays:
[1] = tested on: patients experiencing ST-segment elevation myocardial infarction (STEMI); test: […] Phase III study: clinical outcomes (death, reinfarction, revascularization, stent thrombosis) at 30 days and 8 months; assay type: in vivo, human; conditions: for probability of death/MI: within eight months after treatment, intent-to-treat population
Protocol: (§1) The inclusion criteria were (1) chest pain for longer than 30 minutes with an electrocardiographic ST-segment elevation of 1 mm or greater in two or more contiguous electrocardiogram leads, or with a new left bundle-branch block, and (2) admission either within 12 hours of symptom onset or between 12 and 24 hours after onset with evidence of continuing ischemia. The exclusion criteria included administration of fibrinolytics in the previous 30 days, major surgery within 15 days, and active bleeding or previous stroke in the last six months. Immediately after eligibility criteria were met and before the visualization of coronary arteries through angiography, the treating physician at each investigational site performed open-label assignments of study treatments via sealed envelopes.
(§2) This type of regimen is described in U.S. Pat. No. 6,770,660. Abciximab was administered in a 0.25 mg/kg bolus, followed by 0.125 μg/kg/min continuous infusion for 12 hours. The administration of both drugs began at first medical contact, before arterial sheath insertion. Heparin was given at 40 to 70 U/kg, targeting an activated clotting time of at least 200 seconds. Patients received aspirin (160-325 mg orally or 250 mg intravenously, followed by 80-125 mg/d orally indefinitely) and clopidogrel (300 mg orally and then 75 mg/d for at least three months).
(§3) A 12-lead electrocardiogram was recorded before the procedure and 90 minutes after the last balloon inflation in the infarct-related artery. Follow-up visits were scheduled at one, four, and eight months.
(§4) The data for all patients with primary end-point events were reviewed by an independent adjudication committee whose members were blinded to treatment assignments. Events adjudication was performed separately by two members, and in case of disagreement, the opinion of the third member was obtained and the final decision taken by consensus. The committee was also responsible for the adjudication of all clinical events according to the Academic Research Consortium.^18
(§5) Discrete data were summarized as frequencies, and comparisons were made with the likelihood-ratio χ^2 test or Fisher exact test. Continuous data were expressed as mean (SD) or median and interquartile range according to their distribution; comparisons were made with a one-way analysis of variance or the Kruskal-Wallis test.

[2] = tested on: patients experiencing ST-segment elevation myocardial infarction (STEMI); test: […] primary end point: at least 50% resolution of ST-segment elevation on 12-lead electrocardiogram 90 minutes after PCI; assay type: in vivo, human; conditions: for percentage of patients achieving at least 50% ST-segment resolution / patients achieving at least 50% ST-segment resolution: intention-to-treat analysis, within 90 minutes following PCI; for patients achieving at least 50% ST-segment resolution: out of 361 patients
Protocol: as §1, §2, §3
Changes in the ST-segment of the electrocardiogram were evaluated cumulatively before and 90 minutes after intervention. ST-segment elevation was measured to the nearest 0.5 mm at 60 milliseconds after the J point by a single experienced cardiologist who was blinded to treatment assignments. […] Quantitative angiographic analyses were performed with a validated edge-detection system (CAAS II; Pie Medical, Maastricht, the Netherlands), and coronary flow was classified according to Thrombolysis in Myocardial Infarction (TIMI) criteria. Angiographic analyses and TIMI grading were performed by one independent cardiologist who was blinded to treatment assignments.
This was based on both intention-to-treat and per-protocol principles and was applied to an exploratory analysis across several prespecified subgroups. The Cochran-Mantel-Haenszel χ^2 test was performed to evaluate possible imbalances of the relative risk among different recruiting centers.

[3] = tested on: patients experiencing ST-segment elevation myocardial infarction (STEMI); test: MULTISTRATEGY safety analysis: bleeding, transfusion, thrombocytopenia and thrombocytopenia-associated mortality; conditions: for Major bleeding / Minor bleedng / Moderate thrombocytoperia (<100000 cells/mm^3) / Red blood cells transfusion ≧1 Units / Red blood cells transfusion ≧2 Units / Severe thrombocytoperia (<50000 cells/mm^3): At 30 d, safety analysis
Protocol: as §1, §2, §4, §5

[4] = At 8 mo, number of patients with event
[5] = At 30 d, number of patients with event

## CCCCS(=O)(=O)N[C@@H](Cc1ccc(OCCCCC2CCNCC2)cc1)C(=O)O.Cl [Tirofiban, N-(butylsulfonyl)-O-[4-(4-piperidinyl)butyl]-tyrosine monohydrochloride]
[1]; At 8 mo, Kaplan-Meier estimate
  Clinically driven target-vessel revascularization: (6.2) %
  Composite of death, reinfarction, or target-vessel revascularization: (9.9) %
  Death: (3.0) %
  Death or reinfarction: (5.9) %
  Definite or probable or possible stent thrombosis: (3.8) %
  Definite or probable stent thrombosis: (3.2) %
  Definite stent thrombosis: (2.7) %
  Possible stent thrombosis: (0.8) %
  Reinfarction: (4.3) %
[1]; [4]
  Clinically driven target-vessel revascularization: 23 No.
  Composite of death, reinfarction, or target-vessel revascularization: 37 No.
  Death: 11 No.
  Death or reinfarction: 22 No.
  Definite or probable or possible stent thrombosis: 14 No.
  Definite or probable stent thrombosis: 12 No.
  Definite stent thrombosis: 10 No.
  Possible stent thrombosis: 3 No.
  Reinfarction: 16 No.
[1]; At 30 d, Kaplan-Meier estimate
  Clinically driven target-vessel revascularization: (2.2) %
  Composite of death, reinfarction, or target-vessel revascularization: (4.0) %
  Death: (1.1) %
  Death or reinfarction: (3.8) %
  Definite or probable stent thrombosis: (2.4) %
  Definite stent thrombosis: (1.9) %
  Probable stent thrombosis: (0.5) %
  Reinfarction: (2.7) %
[1]; [5]
  Clinically driven target-vessel revascularization: 8 No.
  Composite of death, reinfarction, or target-vessel revascularization: 15 No.
  Death: 4 No.
  Death or reinfarction: 14 No.
  Definite or probable stent thrombosis: 9 No.
  Definite stent thrombosis: 7 No.
  Probable stent thrombosis: 2 No.
  Reinfarction: 10 No.
[1]; At 30 days
  incidence of MACE: 4.0%
[1]; At eight months
  incidence of MACE: 9.9%
[1]
  probability of death/MI: 5.9%
[2]; consistent across recruiting centers and prespecified subgroups
  recovery from ST-segment elevation after coronary intervention in comparison with abciximab: noninferior
[2]
  percentage of patients achieving at least 50% ST-segment resolution: 85.3%
  patients achieving at least 50% ST-segment resolution: 308 patients

## Abciximab: inhibitor of the glycoprotein (GP) IIb/IIIa receptor complex; comparator drug
[1]; At 8 mo, Kaplan-Meier estimate
  Clinically driven target-vessel revascularization: (7.3) %
  Composite of death, reinfarction, or target-vessel revascularization: (12.4) %
  Death: (4.0) %
  Death or reinfarction: (7.5) %
  Definite or probable or possible stent thrombosis: (4.3) %
  Definite or probable stent thrombosis: (3.5) %
  Definite stent thrombosis: (2.7) %
  Possible stent thrombosis: (1.1) %
  Reinfarction: (3.5) %
[1]; [4]
  Clinically driven target-vessel revascularization: 27 No.
  Composite of death, reinfarction, or target-vessel revascularization: 46 No.
  Death: 15 No.
  Death or reinfarction: 28 No.
  Definite or probable or possible stent thrombosis: 16 No.
  Definite or probable stent thrombosis: 13 No.
  Definite stent thrombosis: 10 No.
  Possible stent thrombosis: 4 No.
  Reinfarction: 13 No.
[1]; At 30 d, Kaplan-Meier estimate
  Clinically driven target-vessel revascularization: (1.6) %
  Composite of death, reinfarction, or target-vessel revascularization: (4.3) %
  Death: (2.4) %
  Death or reinfarction: (3.8) %
  Definite or probable stent thrombosis: (2.2) %
  Definite stent thrombosis: (1.3) %
  Probable stent thrombosis: (0.8) %
  Reinfarction: (1.3) %
[1]; [5]
  Clinically driven target-vessel revascularization: 6 No.
  Composite of death, reinfarction, or target-vessel revascularization: 16 No.
  Death: 9 No.
  Death or reinfarction: 14 No.
  Definite or probable stent thrombosis: 8 No.
  Definite stent thrombosis: 5 No.
  Probable stent thrombosis: 3 No.
  Reinfarction: 5 No.
[1]; At 30 days
  incidence of MACE: 4.37%
[1]; At eight months
  incidence of MACE: 12.4%
[1]
  probability of death/MI: 7.5%
[3]
  Major bleeding: (1.6) %
  Minor bleedng: (6.2) %
  Moderate thrombocytoperia (<100000 cells/mm^3): (1.6) %
  Red blood cells transfusion ≧1 Units: (2.2) %
  Red blood cells transfusion ≧2 Units: (2.2) %
  Severe thrombocytoperia (<50000 cells/mm^3): (2.4) %
[3]; number of patients
  Major bleeding: 6 No.
  Minor bleedng: 23 No.
  Moderate thrombocytoperia (<100000 cells/mm^3): 6 No.
  Red blood cells transfusion ≧1 Units: 8 No.
  Red blood cells transfusion ≧2 Units: 8 No.
  Severe thrombocytoperia (<50000 cells/mm^3): 9 No.
[3]; At 30 days
  TIMI major and minor bleeding: 7.8%
  incidence of severe or moderate thrombocytopenia: 4.0%
[3]; HDB tirofiban compared with abciximab, follow-up, FIG. 3
  mortality rates of nonthrombocytopenic patients: virtually identical
[3]; within eight months, FIG. 3
  patients with drug-induced thrombocytopenia who died: 20%
[2]
  percentage of patients achieving at least 50% ST-segment resolution: 83.6%
  patients achieving at least 50% ST-segment resolution: 302 patients

— patent publication US20120059036A1, “METHOD FOR REDUCING THROMBOCYTOPENIA AND THROMBOCYTOPENIA-ASSOCIATED MORTALITY” (priority 2008, published 2012)
